Assay results taken from patent US20050075371A1, “Methods and compositions for the oral administration of prodrugs of proton pump inhibitors” (ALLERGAN, INC., priority 2003, published 2005).

Experiments:
[1] = Systemic half-life after oral or intravenous administration in rats; format: in vivo, rats (Sprague-Dawley); details: rats, oral solution; for Rat T1/2 Prodrug: half-life of intact prodrug, NC = plasma concentration of prodrug too low to calculate half-life, or undetected
Description: (§1) Blood concentrations of the compounds omeprazole, lansoprazole, pantoprazole, rabeprazole, and test compounds were quantified using an achiral liquid chromatography tandem mass spectrometry method (LC-MS/MS). Systemic pharmacokinetic parameters were determined for omeprazole or lansoprazole using non-compartmental analysis in Watson® version 6.3, available from InnaPhase Corporation, Philadelphia, Pa.

[2] = Systemic half-life after oral or intravenous administration in dogs; format: in vivo, dogs (beagle); details: for Dog T1/2 Prodrug / Dog T1/2 PPI / half-life: oral solution, unit inferred; for Dog T1/2 Prodrug: half-life of intact prodrug, NC = plasma concentration of prodrug too low to calculate half-life, or undetected; for Dog T1/2 PPI / half-life: systemic half-life of the proton pump inhibitor; for t1/2 (systemic half-life in dogs after oral administration): Table 2D; for half-life: beagle, dog, blood, po, read-out: Dog T1/2 PPI (converted)
Description: as §1

Caco-2 cells = assay: Membrane permeability (Papp) across Caco-2 cell monolayer, apical to basolateral; format: in vitro ADME; details: Caco-2, apical to basolateral, 10 μM, 37° C.
Description: Determination of membrane permeability in all examples described herein was accomplished by the following procedure. This procedure is also used to determine whether a given prodrug falls within the scope of those claims given herein which relate to membrane permeability.
Caco-2 cells were seeded on Costar™ 12 mm diameter, 0.4 μm pore size transwell filters, and were cultured at 37° C., 5% CO2 in a humidified tissue culture chamber.
DMEM was equilibrated as a transport buffer in 37° C. water bath an hour before experiment. The cells were then equilibrated in transport buffer for 1 hr at 37° C.
Dosing solution (10 μM) was prepared by adding a 20 μL aliquot of a 10 mM stock solution of the prodrug to 20 mL of transport buffer.
Transport across Caco-2 cell monolayer was measured at 37° C., in the apical to basolateral direction (n=3).
Transport buffer was removed from both apical and basolateral compartment of filters. Dosing solution (0.2 mL) was added to the apical compartment of the cell layers on transwell filters, and 0.8 ml fresh pre-warmed transport buffer was added to basolateral compartment. Timing was started for transport, and at 5, 20, and 60 min after transport started, sample fluid (400 μL) was collected from the basolateral compartment. Fresh transport buffer (400 μL) was added back to the basolateral compartment, and the fluid was thoroughly mixed.
Transport samples, dosing solution, and standards(100 μL) each were mixed with 100 μl of a 500 ng/ml internal standard (Lansoprazole-D) for LC-MS/MS analysis, and part of each sample (100 μL) was vortexed and transferred into glass LC-MS/MS vials for analysis.
The apparent permeability coefficient (Papp, cm/sec), otherwise known herein as the membrane permeability, is determined from the following relationship: Papp=J/(ACo) where J (pmol/min) is the transport rate, meaning the rate of prodrug movement through the cell layer, A (cm^2) is the filter surface area, and Co (μM) is the initial dosing concentration.
The transport rate J, is calculated as the slope of the linear regression fit for the transport amount over time data using Microsoft Excel® 97 SR-2 (Microsoft Corp. Redmond, Wash.).
Lucifer yellow (LY) was used as a paracellular permeability reference standard to determine integrity of cell layers used in the experiments. LY transport in the apical to basolateral direction was carried out in the same manner as described above. Fluorescence level in basolateral fluid sampled at 5, 20, and 60 min post dose was determined using Fluostar Galaxy (BMG Labtechnologies, Durham, N.C.) at excitation/emission wavelengths of 485/520 nm. A standard curve covering the range from 0.002 to 0.5 mg/mL is constructed to quantify the amount of LY in the transport sample to calculate permeability coefficient (Papp).

[3] = systemic half-life of the proton pump inhibitor, unit inferred

Structure (SMILES)	Rat T1/2 PPI [1, 3]	Dog T1/2 Prodrug [2]	Dog T1/2 PPI [2]	other results
Cc1c(OCC(F)(F)F)ccnc1C[S+]([O-])c1nc2ccccc2n1S(=O)(=O)c1cccc(C(=O)O)c1 (centres unmarked) [Compound 7]	116 min	12.4 min	53.6 min	t1/2 (systemic half-life in dogs after oral administration) [2]: 53.4 min; Permeability (Caco-2 cells): 0.16 ×10⁻⁶ cm/s
COC(=O)COc1ccc(S(=O)(=O)n2c([S+]([O-])Cc3ncc(C)c(OC)c3C)nc3cc(OC)ccc32)cc1 (centres unmarked) [Compound 20]			162 min	
Cc1c(OCC(F)(F)F)ccnc1C[S+]([O-])c1nc2ccccc2n1S(=O)(=O)c1ccc(CC(=O)O)cc1 (centres unmarked) [Compound 9]	20.5 min		53.6 min	t1/2 (systemic half-life in dogs after oral administration) [2]: 53.4 min; Permeability (Caco-2 cells): 0.34 ×10⁻⁶ cm/s
COc1ccc2c(c1)nc([S+]([O-])Cc1ncc(C)c(OC)c1C)n2S(=O)(=O)c1ccc(OCC(C)(C)C(=O)O)cc1 (centres unmarked) [Compound 3]	106 min	18.7 min	48.8 min	t1/2 (systemic half-life in dogs after oral administration) [2]: 48.6 min; Permeability (Caco-2 cells): 0.38 ×10⁻⁶ cm/s
Cc1c(OCC(F)(F)F)ccnc1C[S+]([O-])c1nc2ccccc2n1S(=O)(=O)c1ccc(OCC(C)(C)C(=O)O)cc1 (centres unmarked) [Compound 11]	56 min		52.4 min	
COc1ccnc(C[S+]([O-])c2nc3ccc(OC(F)F)cc3[nH]2)c1OC (centres unmarked) [Pantoprazole, reference compound]				half-life ([1]; Sprague-Dawley, rat, blood, systemic half-life of the proton pump inhibitor, unit inferred, read-out: Rat T1/2 PPI (converted)): 41.8 min; half-life [2]: 44.6 min
COc1ccc2c(c1)nc([S+]([O-])Cc1ncc(C)c(OC)c1C)n2S(=O)(=O)c1c(C)cc(OCC(C)(C)C(=O)O)cc1C (centres unmarked) [Compound 4]	42.5 min	75.6 min	50.2 min	Rat T1/2 Prodrug ([1]; unit inferred): 20.5 min; t1/2 (systemic half-life in dogs after oral administration) [2]: 50.4 min; Permeability (Caco-2 cells): 0.52 ×10⁻⁶ cm/s
COc1ccc2c(c1)nc([S+]([O-])Cc1ncc(C)c(OC)c1C)n2S(=O)(=O)c1ccc(CC(=O)O)cc1 (centres unmarked) [Compound 5]	102 min	16.1 min	61.8 min	t1/2 (systemic half-life in dogs after oral administration) [2]: 60 min; Permeability (Caco-2 cells): 0.17 ×10⁻⁶ cm/s
Cc1ccc(C(=O)O)cc1S(=O)(=O)n1c([S+]([O-])Cc2nccc(OCC(F)(F)F)c2C)nc2ccccc21 (centres unmarked) [Compound 13]	141 min	7.32 min	106 min	
COCCCOc1ccnc(C[S+]([O-])c2nc3ccccc3[nH]2)c1C (centres unmarked) [Rabeprazole, reference compound]				half-life [2]: 22.1 min
COc1ccc(S(=O)(=O)n2c([S+]([O-])Cc3nccc(OCC(F)(F)F)c3C)nc3ccccc32)cc1C(=O)O (centres unmarked) [Compound 8]	108 min		64.8 min	t1/2 (systemic half-life in dogs after oral administration) [2]: 66 min; Permeability (Caco-2 cells): 0.23 ×10⁻⁶ cm/s
Cc1c(OCC(F)(F)F)ccnc1C[S+]([O-])c1nc2ccccc2n1S(=O)(=O)c1ccc(OCC(=O)O)cc1 (centres unmarked) [Compound 10]			59.3 min	
COc1ccc(C(=O)O)cc1S(=O)(=O)n1c([S+]([O-])Cc2nccc(OCC(F)(F)F)c2C)nc2ccccc21 (centres unmarked) [Compound 14]	32.2 min	7.08 min	83.4 min	
COc1ccc2c(c1)nc([S+]([O-])Cc1ncc(C)c(OC)c1C)n2S(=O)(=O)c1c(C)cc(OCC(=O)O)cc1C (centres unmarked) [Compound 2]		6.78 min	96.6 min	t1/2 (systemic half-life in dogs after oral administration) [2]: 96 min; Permeability (Caco-2 cells): 0.054 ×10⁻⁶ cm/s
Cc1c(OCC(F)(F)F)ccnc1C[S+]([O-])c1nc2ccccc2n1S(=O)(=O)c1ccc(C(=O)O)c(OCC(=O)O)c1 (centres unmarked) [Compound 16]	112 min		60 min	
COc1ccc2c(c1)nc([S+]([O-])Cc1ncc(C)c(OC)c1C)n2S(=O)(=O)c1cccc(C(=O)O)c1 (centres unmarked) [Compound 6]	116 min	18.2 min	115 min	t1/2 (systemic half-life in dogs after oral administration) [2]: 114 min; Permeability (Caco-2 cells): 0.067 ×10⁻⁶ cm/s
Cc1c(OCC(F)(F)F)ccnc1C[S+]([O-])c1nc2ccccc2n1S(=O)(=O)c1ccc(CC(=O)O)c(CC(=O)O)c1 (centres unmarked) [Compound 12]			55.9 min	

The next lines start with results.

Rat T1/2 PPI [1, 3]	Dog T1/2 Prodrug [2]	Dog T1/2 PPI [2]	Structure (SMILES)	other results
	44.8 min	53.6 min	COCCCOc1ccnc(C[S+]([O-])c2nc3ccccc3n2S(=O)(=O)c2ccc(C(=O)O)cc2)c1C (centres unmarked) [Compound 33]	
87 min		157 min	COc1ccnc(C[S+]([O-])c2nc3cc(OC(F)F)ccc3n2S(=O)(=O)c2ccc(OCC(=O)O)cc2)c1OC (centres unmarked) [Compound 28]	
131 min			Cc1cc(C(=O)O)ccc1S(=O)(=O)n1c([S+]([O-])Cc2nccc(OCC(F)(F)F)c2C)nc2ccccc21 (centres unmarked) [Compound 37]	
	31.6 min	91.2 min	COCCCOc1ccnc(C[S+]([O-])c2nc3ccccc3n2S(=O)(=O)c2c(C)cc(OCC(=O)O)cc2C)c1C (centres unmarked) [Compound 32]	
23 min		82.2 min	COc1ccc2c(c1)nc([S+]([O-])Cc1ncc(C)c(OC)c1C)n2S(=O)(=O)c1ccc(OCC(=O)O)c(OCC(=O)O)c1 (centres unmarked) [Compound 24]	
	50.6 min	51.3 min	COCCCOc1ccnc(C[S+]([O-])c2nc3ccccc3n2S(=O)(=O)c2cc(C(=O)O)ccc2C)c1C (centres unmarked) [Compound 31]	
	89.4 min	67.8 min	Cc1cc(OCC(=O)O)cc(C(C)C)c1S(=O)(=O)n1c([S+]([O-])Cc2nccc(OCC(F)(F)F)c2C)nc2ccccc21 (centres unmarked) [Compound 17]	
	5.39 min	54.5 min	Cc1c(OCC(F)(F)F)ccnc1C[S+]([O-])c1nc2ccccc2n1S(=O)(=O)c1ccc(C(=O)O)cc1 (centres unmarked) [Compound 18]	
85.8 min			COc1ccc(S(=O)(=O)n2c([S+]([O-])Cc3nccc(OCC(F)(F)F)c3C)nc3ccccc32)cc1CCC(=O)O (centres unmarked) [Compound 38]	Rat T1/2 Prodrug ([1]; unit not given): 1.04 (0.35)
	110 min	29 min	Cc1ccc(S(=O)(=O)n2c([S+]([O-])Cc3nccc(OCC(F)(F)F)c3C)nc3ccccc32)cc1CCC(=O)O (centres unmarked) [Compound 19]	
23.3 min			Cc1c(OCC(F)(F)F)ccnc1C[S+]([O-])c1nc2ccccc2n1S(=O)(=O)c1ccc(C(=O)O)cc1 (centres unmarked) [Compound 36]	
110 min			Cc1c(OCC(F)(F)F)ccnc1C[S+]([O-])c1nc2ccccc2n1S(=O)(=O)c1ccc(OCC(=O)O)c(OCC(=O)O)c1 (centres unmarked) [Compound 35]	
	67.2 min	29.5 min	COCCCOc1ccnc(C[S+]([O-])c2nc3ccccc3n2S(=O)(=O)c2cccc(C(=O)O)c2)c1C (centres unmarked) [Compound 30]	
163 min		73.2 min	COc1ccc2c(c1)nc([S+]([O-])Cc1ncc(C)c(OC)c1C)n2S(=O)(=O)c1ccc(OCC(=O)O)c(C(=O)O)c1 (centres unmarked) [Compound 23]	
		233 min	COc1ccc2c(c1)nc([S+]([O-])Cc1ncc(C)c(OC)c1C)n2S(=O)(=O)c1ccc(C(=O)O)c(C(=O)O)c1 (centres unmarked) [Compound 22]	
66.6 min			Cc1cc(OCC(=O)O)cc(C)c1S(=O)(=O)n1c([S+]([O-])Cc2nccc(OCC(F)(F)F)c2C)nc2ccccc21 (centres unmarked) [Compound 34]	
60.6 min		57.5 min	COc1ccnc(C[S+]([O-])c2nc3cc(OC(F)F)ccc3n2S(=O)(=O)c2cc(C(=O)O)ccc2C)c1OC (centres unmarked) [Compound 29]	
130 min	7.02 min	66 min	COc1ccc2c(c1)nc([S+]([O-])Cc1ncc(C)c(OC)c1C)n2S(=O)(=O)c1cc(C(=O)O)ccc1C (centres unmarked) [Compound 27]	
